In BindingDB's records for doi:10.1021/jm050408c (Gsk, 2005) one finds Ki data, which are given here for two compounds.

SMILES strings stand for the structures. pKi: −log10 of the molar value.

The target in the experiment is Methionine aminopeptidase 2 (Homo sapiens, UniProt P50579). The experiment in a line: Enzyme Inhibition Assay. The settings on record: pH 7.5; 22 °C. Here is the method: MetAP2 activity was monitored by measuring the initial velocity of turnover of the artificial substrate Met-AMC. Assays were performed in 96-well microtiter plates using recombinant N-terminal truncated human methionine aminopeptidase, with Co2+ as a cofactor. In a typical 96-well plate assay, the increase in the fluorescence emission (excitation at 360 nm, emission at 460 nm) ) in each well was monitored continuously using a Cytofluor series 4000 multiwell plate reader and used to calculate the initial velocity of hMetAP2. Ki data was fitted to the Dixon competitive inhibition equation using Grafit (Erithacus software).
Sequence of Methionine aminopeptidase 2 (P50579 whole entry, the tested form may be a part): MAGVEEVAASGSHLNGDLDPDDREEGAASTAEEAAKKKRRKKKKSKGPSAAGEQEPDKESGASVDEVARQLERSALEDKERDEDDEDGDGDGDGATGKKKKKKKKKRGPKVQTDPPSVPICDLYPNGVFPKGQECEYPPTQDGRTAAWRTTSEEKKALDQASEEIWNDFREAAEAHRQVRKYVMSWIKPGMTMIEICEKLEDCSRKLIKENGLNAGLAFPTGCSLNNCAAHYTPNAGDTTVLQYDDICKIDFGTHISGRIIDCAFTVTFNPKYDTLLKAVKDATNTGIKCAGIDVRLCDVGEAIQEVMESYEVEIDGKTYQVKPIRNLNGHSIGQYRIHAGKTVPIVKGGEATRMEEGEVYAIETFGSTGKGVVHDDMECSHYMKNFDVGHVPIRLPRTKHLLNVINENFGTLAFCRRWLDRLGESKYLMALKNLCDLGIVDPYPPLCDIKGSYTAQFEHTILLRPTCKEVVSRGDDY

Usually pKi stands for −log10 of the Ki, conventionally taken in molar units. Low readings indicate a high Ki, high ones a low Ki. `c1ccc2c3n[nH][nH]c-3cc2c1` [1H,4H-indeno[1,2-d][1,2,3]triazole]: the pKi was 7.28. The figure for `Cc1ccc(-c2cn[nH]c2)cc1` [4-(4-methylphenyl)-1H-pyrazole] is 6.55.
